Experimental data reported in PMC9820345, “Metal Complexes of a 5-Nitro-8-Hydroxyquinoline-Proline Hybrid with Enhanced Water Solubility Targeting Multidrug Resistant Cancer Cells” (International Journal of Molecular Sciences, 2022).

How the values were obtained:
[1] = Aqueous solubility at physiological pH (S7.4); format: physicochemical; settings: water, pH 7.4, aqueous buffer
[2] = test system: tested cancer cell lines (MES-SA, MES-SA/Dx5, Colo205, Colo320); experiment: In vitro cytotoxicity, summary over the tested cancer cell lines; format: cell-based; settings: Homo sapiens, range over MES-SA
Protocol: The in vitro cytotoxicity of HQNO2-L-Pro and its RuCym and RhCp* complexes was assayed in two chemosensitive and resistant cell pairs to reveal their potential MDR selective toxicity. On the one hand, the parental human uterine sarcoma MES-SA cell line and its P-gp positive MDR derivative MES-SA/Dx5 cell line were applied; on the other hand, the human colon adenocarcinoma Colo205 cell line and its doxorubicin-resistant counterpart, the Colo320 cell line, were involved. The determined IC50 values using 72 h (Colo205 and Colo320) or 144 h incubation time (MES-SA and MES-SA/Dx5) are shown in Table 4. Doxorubicin was used as a control, and IC50 values obtained for the analogous HQCl-L-Pro compounds are also shown for comparison. […] The lower cytotoxicity of HQNO2-L-Pro is most likely due to its very strong hydrophilic features.
Inhibition of the cell growth (expressed as IC50: inhibitory concentration that reduces by 50% the growth of the cells exposed to the tested compounds) was determined from the sigmoid curve where 100 − ((ODsample − ODmedium control)/(ODcell control − ODmedium control)) × 100 values were plotted against the logarithm of compound concentrations. […]

[3] = Formation constants of Zn(II) complexes by UV-vis spectrophotometric titrations; format: physicochemical; settings: I = 0.1 M KCl, 25.0 °C, data evaluated at pH < 8
Protocol: Complexation of HQNO2-L-Pro with Zn(II) was studied by UV-vis and ^1H NMR spectroscopy (Figure 6). Comparing the UV-vis spectra recorded for the ligand in the presence and in the absence of Zn(II) with increasing pH, complex formation was evident from the UV-vis spectral changes at pH < ~8; however, in the basic pH range the spectra resembled more and more those of the free ligand. Based on the spectra recorded at pH < 8, formation constants for species [Zn(HL)]^+ and [Zn(HL)2] were determined (Table 2).
An Agilent Cary 8454 diode array spectrophotometer (Santa Clara, CA, USA) was used to obtain UV-vis spectra in the wavelength range 200–1000 nm, while spectra were recorded for the Fe(II)-containing samples using an Avantes (Avantes B.V., Apeldoorn, The Nederlands) AvaSpec-ULS2048CL-EVO spectrometer with an AvaLight-DHc light source and FDP-7UVIR200-2-VAR transmission dip probe. The titrations for the Fe(II)-containing samples were performed in a laboratory glove box (GP(Campus), Jacomex) (O2 content ≤ 1 ppm). The path length (ℓ) was 1 cm in most cases (the actual ℓ is always indicated in the legends of the figures). The concentrations of the ligands and complexes were between 40 and 200 µM, and 0.2 M KNO3 for the organometallic complexes or 0.1 M KCl for the Fe(II/III), Cu(II), and Zn(II) complexes were used to adjust the constant ionic strength. […]

[4] = n-Octanol/water distribution coefficients, shake-flask method; format: physicochemical; settings: pH 7.40 (20 mM phosphate buffer); 100 mM chloride; 25.0 °C
Protocol: The traditional shake-flask method was used to obtain distribution coefficients of the ligands as well as of the complexes in n-octanol/buffered aqueous solution (20 mM phosphate, pH = 7.40 or 10 mM MES, pH 5.50) at different chloride ion concentrations (4, 24 and 100 mM) using UV-vis spectrophotometry (Agilent Cary 8454 diode array spectrophotometer, Santa Clara, CA, USA) for the analysis. The measurement and data evaluation were performed as described in our former work.

| Structure (SMILES) | solubility [1] | IC50 [2] | logβ [M(HL)2] [3] | logβ [M(HL)] [3] | log D7.4 [4] |
| --- | --- | --- | --- | --- | --- |
| O=C(O)[C@@H]1CCCN1Cc1cc([N+](=O)[O-])c2cccnc2c1O [HQNO2-L-Pro, (2S)-1-((8-hydroxy-5-nitroquinolin-7-yl)methyl)pyrrolidin-1-ium-2-carboxylate] | > 10 mM | 32.4 to 226 µM | 33.71 ± 0.06 | 17.36 ± 0.03 |  |
| Cc1ccc(C(C)C)cc1.O=C(O)[C@@H]1CCC[NH+]1Cc1cc([N+](=O)[O-])c2ccc[n+]3c2c1[O][Ru-]3[Cl].[Cl-] [RuCym-HQNO2-L-Pro, [RuCym(HQNO2-L-Pro)Cl]Cl] |  |  |  |  | +0.06 ± 0.01 |
